Results published in patent US9243062B2, “Peptides for treatment and diagnosis of autoimmune disease” (priority 2005, dated 2016).
No end group written: not given here.

Columns and labels:
[1] = ELISA binding to cardiolipin as an indicator of phospholipids; details: for Ratio Test/Control: cardiolipin vs ethyl alcohol control; for Optical density reading, ELISA, antigen cardiolipin: plate coated with cardiolipin in ethyl alcohol, tested against antibody or homodimer peptide, mean ± SD, three observations
Procedure: (§1) An N terminal cysteine was added to each of the hypervariable region sequences (CDR-L1-3 and CDR-H1-3, SEQ ID NOs:6 to 16) which were synthesised by Fmoc peptide synthesis and dimerised to form homodimers. Some of each of the homodimers was biotinylated; the biotinylated homodimers were then tested by fluorescence microscopy for their ability to bind to human pancreatic a cells (used as an indicator human tissue) by using fluoresceinated antibiotin as a second step reagent. […] The non-biotinylated homodimer peptides were then tested by ELISAs for their ability to bind to anti-TCR Vβ antibody and to cardiolipin as an indicator of phospholipids (Table 1).

human pancreatic α cells = assay: Fluorescence microscopy: binding of biotinylated homodimer CDR peptides to human pancreatic α cells; assay type: cell-based; details: biotinylated homodimers; fluoresceinated antibiotin as second step reagent
Procedure: as §1

anti-TCR Vβ antibody = assay: ELISA binding to anti-TCR Vβ antibody; details: plate coated with homodimer peptide; for Optical density reading, ELISA, antigen α-TCRVβ antibody: tested against α-TCR Vβ, mean ± SD, three observations; for Ratio Test/Control: α-TCRVβ antibody vs PBS/culture medium control
Procedure: as §1

[2] = Phase IIb randomised double blind trial in type 2 diabetics after stopping antidiabetic medication; assay type: in vivo, human
Procedure: 31 subjects (21 males and 10 females) with type 2 diabetes mellitus on one or more oral antidiabetic medication(s) were entered into a randomised double blind study of 16 weeks duration. At day 01 all antidiabetic medication was stopped. Patients were randomised to either the placebo group (group C) or one of 3 treatment groups described as Groups A, B or D. All groups received a total of 4 IM injections spaced one week apart starting from day 01. The placebo group (8 subjects) received 1.2 ml of saline containing 0.1% alhydrogel. Group A (7 subjects) received 1.51 mg of a peptide according to the invention (designated as NDX-71 herein) in 1.2 ml saline containing 0.1% alhydrogel. Group B (8 subjects) received 0.86 mg NDX-71 in 1.2 ml saline containing 0.1% alhydrogel. Group D (8 subjects) received a mixture of 3 peptides of the invention (0.92 mg NDX-71, 0.68 mg C80 and 0.71 mg F90) in 1.2 ml saline containing 0.1% alhydrogel. Placebo and study medications were visibly identical. The NDX-71 peptide used in this example was the B71 peptide used in Example 6. The C80 and F90 peptides used in this example were the C80 and F90 peptides used in Example 6.
At regular intervals throughout the study period patients underwent blood tests for clinical safety and glycaemic efficacy parameters. […] Clinical safety parameters in all groups were unchanged from baseline. There were no adverse events reported in the study attributable to the test substances.

NDX-71: homodimer of CDR-H2 derived monomer peptides, each SEQ ID NO:8 (NIYPSDSYTNYNQKFKD) plus an N terminal cysteine (SEQ ID NO:159) (chain 1 CNIYPSDSYTNYNQKFKD; chain 2 CNIYPSDSYTNYNQKFKD; cysteine pairing not given here; also: homodimer)
Ratio Test/Control [1]: 2.40 | Optical density reading, ELISA, antigen cardiolipin [1]: 0.151 ± 0.020 | ability to bind to human pancreatic α cells (human pancreatic α cells): bound to the pancreatic α cells | Optical density reading, ELISA, antigen α-TCRVβ antibody (anti-TCR Vβ antibody): 0.307 ± 0.018 | Ratio Test/Control (anti-TCR Vβ antibody): 1.83 | glycaemic control after cessation of antidiabetic medication ([2]; 1.51 mg dose): able to maintain good glycaemic control | dose dependence of effect ([2]; 1.51 mg vs 0.86 mg): dose response effect | HbA1c, treatment difference vs placebo (group C) ([2]; 21 male volunteers subset, high dose group A (1.51 mg), p<0.001): Statistically significant treatment differences | corrected fructosamine, treatment difference vs placebo (group C) ([2]; 21 male volunteers subset, high dose group A (1.51 mg), p=0.001): Statistically significant treatment differences | fasting glucose, treatment difference vs placebo (group C) ([2]; 21 male volunteers subset, high dose group A (1.51 mg), p=0.005): Statistically significant treatment differences | mean HbA1c level ([2]; baseline, high dose treatment group (1.51 mg NDX-71)): 6.3% | mean HbA1c level ([2]; day 113, high dose treatment group (1.51 mg NDX-71)): 6.9% | HbA1c levels over time vs placebo group ([2]; high dose treatment group (1.51 mg NDX-71), p=0.02): significantly different from the placebo group | glycaemic control compared with placebo ([2]; lower dose of 0.86 mg): showed improvement as compared with placebo

CDR-L3 (QQYNSYPLT; Protein Light chain HV3)
Ratio Test/Control [1]: 2.23 | Optical density reading, ELISA, antigen cardiolipin [1]: 0.254 ± 0.012 | ability to bind to human pancreatic α cells (human pancreatic α cells): bound to the pancreatic α cells | Optical density reading, ELISA, antigen α-TCRVβ antibody (anti-TCR Vβ antibody): 0.243 ± 0.008 | Ratio Test/Control (anti-TCR Vβ antibody): 1.74

CDR-H3: homodimer of CDR-H3 derived monomer peptides, each SEQ ID NO:10 (LRGLLPDY) plus an N terminal cysteine (SEQ ID NO:160) (chain 1 CLRGLLPDY; chain 2 CLRGLLPDY; cysteine pairing not given here; also: homodimer)
Ratio Test/Control [1]: 2.16 | Optical density reading, ELISA, antigen cardiolipin [1]: 0.132 ± 0.009 | ability to bind to human pancreatic α cells (human pancreatic α cells): bound to the pancreatic α cells | Optical density reading, ELISA, antigen α-TCRVβ antibody (anti-TCR Vβ antibody): 0.182 ± 0.009 | Ratio Test/Control (anti-TCR Vβ antibody): 2.00
